Results published in US20220370440A1 (Lead Discovery Center GmbH, priority 2018, published 2022).

What was measured:
[1] = biological target: EGFR Exon 20 INSNPH Ba/F3 (Homo sapiens, UniProt P00533, DUP771-773, cells depend on it); assay: EGFR Exon 20 INSNPH Ba/F3 CellTiter-Glo; assay type: cell-based; conditions: CellTiter-Glo, 72 h, read-out: EGFR Exon 20 INSNPH Ba/F3 CTG IC50
Method in brief: (§1)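 IC50 values come from dose–response fits of CellTiter-Glo luminescence in Ba/F3 cells treated with compound for 72 h at 37 °C, 5% CO2. Vehicle (DMSO) and 10 μM staurosporine wells set the assay window, with Z′ ≥0.5 required.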

H1975 = H1975 CellTiter-Glo; assay type: cell-based; conditions: Homo sapiens, NCI-H1975; 72 h compound incubation; read-out: H1975 CTG IC50
Method in brief: (§2)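 In this viability format, compound-treated cells sit 72 h at 37° C. before ATP content is quantified by luminescence, and IC50 is taken from the fitted dose-response curve.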

EGFR T790ML858R = EGFR T790ML858R (Homo sapiens, UniProt P00533, L858R/T790M); assay: EGFR T790ML858R Lance assay; assay type: biochemical
Experimental: (§3) Inhibition is indicated as […] [nM] (“−”=not measured). Compounds having an activity designated as “A” provided an IC50≤100 nM; compounds having an activity designated as “B” provided an 100 nM<IC50≤500 nM; compounds having an activity designated as “C” provided an 500 nM<IC50≤1000 nM; compounds having an activity designated as “D” provided an 1000 nM<IC50≤100000 nM; and compounds having an activity designated as “E” provided an IC50>10000 nM.

EGFR wt = EGFR wt (Homo sapiens, UniProt P00533); assay: EGFR wt Lance assay; assay type: biochemical
Experimental: as §3

[2] = biological target: Her2 Exon 20 INSYVMA Ba/F3 (Homo sapiens, UniProt P04626, DUP772-775, cells depend on it); assay: Her2 Exon 20 INSYVMA Ba/F3 CellTiter-Glo; assay type: cell-based; conditions: CellTiter-Glo, 72 h, read-out: Her2 Exon 20 INSYVMA Ba/F3 CTG IC50
Method in brief: as §1

A431 = A431 CellTiter-Glo; assay type: cell-based; conditions: Homo sapiens, A-431; 72 h compound incubation; read-out: A431 CTG IC50
Method in brief: as §2

HER2 INS YVMA = biological target: T1, HER2 INS YVMA (Homo sapiens, UniProt P04626, INS775YVMA); assay: Lance Kinase Activity Assay, HER2 INS YVMA (Her2 Exon 20 INSYVMA Lance); assay type: biochemical; conditions: biochemical Lance assay
T1 construct: purchased DPF
Method in brief: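 IC50 was fitted to sigmoidal curves of TR-FRET signal (665 and 615 nm emission after 340 nm excitation) from an Eu anti-phospho antibody binding the phosphorylated ULight peptide. The ATP-started reaction ran 1 h at RT and was then quenched with 10 mM EDTA plus antibody for a further 1 h. Compounds were tested as 8-point, 3-fold dilutions.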

Chain of Her2 Exon 20 INSYVMA Ba/F3 (P04626 with tags, fused parts or gaps DUP772-775): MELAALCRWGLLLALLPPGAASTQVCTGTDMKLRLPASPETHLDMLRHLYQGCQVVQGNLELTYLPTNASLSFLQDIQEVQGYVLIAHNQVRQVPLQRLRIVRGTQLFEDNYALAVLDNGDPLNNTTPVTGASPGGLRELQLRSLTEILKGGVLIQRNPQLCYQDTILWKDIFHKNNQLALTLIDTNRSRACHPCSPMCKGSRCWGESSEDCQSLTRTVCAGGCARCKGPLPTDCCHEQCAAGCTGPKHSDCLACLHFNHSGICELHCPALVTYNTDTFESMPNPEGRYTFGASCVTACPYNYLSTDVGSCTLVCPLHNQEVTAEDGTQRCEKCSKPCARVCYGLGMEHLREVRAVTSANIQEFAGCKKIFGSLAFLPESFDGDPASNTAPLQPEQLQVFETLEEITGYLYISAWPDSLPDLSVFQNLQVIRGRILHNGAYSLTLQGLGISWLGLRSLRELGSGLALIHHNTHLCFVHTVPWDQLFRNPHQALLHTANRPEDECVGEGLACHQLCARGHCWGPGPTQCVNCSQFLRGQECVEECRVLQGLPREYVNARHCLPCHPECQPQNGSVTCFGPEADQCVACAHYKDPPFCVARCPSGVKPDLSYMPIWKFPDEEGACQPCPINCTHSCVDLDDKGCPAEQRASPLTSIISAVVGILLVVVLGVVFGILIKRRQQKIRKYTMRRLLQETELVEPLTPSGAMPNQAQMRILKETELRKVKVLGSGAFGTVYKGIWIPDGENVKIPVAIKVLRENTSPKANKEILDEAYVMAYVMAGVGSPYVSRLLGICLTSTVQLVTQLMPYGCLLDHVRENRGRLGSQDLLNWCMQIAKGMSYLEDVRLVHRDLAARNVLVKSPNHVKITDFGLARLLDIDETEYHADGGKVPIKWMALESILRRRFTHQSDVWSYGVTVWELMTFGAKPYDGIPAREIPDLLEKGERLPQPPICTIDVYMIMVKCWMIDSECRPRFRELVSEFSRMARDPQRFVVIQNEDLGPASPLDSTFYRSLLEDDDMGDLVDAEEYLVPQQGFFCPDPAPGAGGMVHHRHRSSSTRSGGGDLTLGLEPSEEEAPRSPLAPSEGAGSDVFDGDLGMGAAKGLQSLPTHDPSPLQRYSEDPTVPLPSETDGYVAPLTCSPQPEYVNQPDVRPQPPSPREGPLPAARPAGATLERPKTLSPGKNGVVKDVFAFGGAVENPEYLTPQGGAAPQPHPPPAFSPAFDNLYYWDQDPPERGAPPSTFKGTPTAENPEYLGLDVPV
Chain of EGFR T790ML858R (P00533 25-1210 T790M/L858R): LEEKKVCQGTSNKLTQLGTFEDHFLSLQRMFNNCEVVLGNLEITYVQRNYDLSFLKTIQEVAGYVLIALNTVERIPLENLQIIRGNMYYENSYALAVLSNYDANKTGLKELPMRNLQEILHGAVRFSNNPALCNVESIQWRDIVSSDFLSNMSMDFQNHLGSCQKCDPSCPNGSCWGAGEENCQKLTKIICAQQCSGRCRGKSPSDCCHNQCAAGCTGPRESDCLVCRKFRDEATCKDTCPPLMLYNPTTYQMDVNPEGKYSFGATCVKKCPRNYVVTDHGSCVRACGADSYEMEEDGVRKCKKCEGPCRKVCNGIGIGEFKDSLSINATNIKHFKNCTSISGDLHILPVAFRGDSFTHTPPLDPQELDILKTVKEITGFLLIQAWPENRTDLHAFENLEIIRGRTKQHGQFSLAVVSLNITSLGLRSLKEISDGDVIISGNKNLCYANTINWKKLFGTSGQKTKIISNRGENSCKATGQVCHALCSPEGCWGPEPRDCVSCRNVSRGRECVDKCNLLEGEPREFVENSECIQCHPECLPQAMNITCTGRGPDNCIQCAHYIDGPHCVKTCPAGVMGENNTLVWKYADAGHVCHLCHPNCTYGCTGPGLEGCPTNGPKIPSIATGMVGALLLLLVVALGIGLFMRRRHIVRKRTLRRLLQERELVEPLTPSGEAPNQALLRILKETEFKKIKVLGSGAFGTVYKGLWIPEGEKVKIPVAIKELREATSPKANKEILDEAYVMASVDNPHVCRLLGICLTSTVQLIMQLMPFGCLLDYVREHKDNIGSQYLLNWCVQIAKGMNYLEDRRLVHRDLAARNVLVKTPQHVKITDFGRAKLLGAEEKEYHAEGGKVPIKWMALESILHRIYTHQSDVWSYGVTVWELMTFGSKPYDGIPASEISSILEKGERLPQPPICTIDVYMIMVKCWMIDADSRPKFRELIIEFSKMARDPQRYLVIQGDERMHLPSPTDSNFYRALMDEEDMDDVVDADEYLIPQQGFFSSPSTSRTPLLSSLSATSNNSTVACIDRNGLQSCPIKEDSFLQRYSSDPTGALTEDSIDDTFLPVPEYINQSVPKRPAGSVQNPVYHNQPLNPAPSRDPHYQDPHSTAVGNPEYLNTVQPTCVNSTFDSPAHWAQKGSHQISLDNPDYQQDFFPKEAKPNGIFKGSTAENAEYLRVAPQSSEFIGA
T1 sequence (P04626 with tags, fused parts or gaps INS775YVMA): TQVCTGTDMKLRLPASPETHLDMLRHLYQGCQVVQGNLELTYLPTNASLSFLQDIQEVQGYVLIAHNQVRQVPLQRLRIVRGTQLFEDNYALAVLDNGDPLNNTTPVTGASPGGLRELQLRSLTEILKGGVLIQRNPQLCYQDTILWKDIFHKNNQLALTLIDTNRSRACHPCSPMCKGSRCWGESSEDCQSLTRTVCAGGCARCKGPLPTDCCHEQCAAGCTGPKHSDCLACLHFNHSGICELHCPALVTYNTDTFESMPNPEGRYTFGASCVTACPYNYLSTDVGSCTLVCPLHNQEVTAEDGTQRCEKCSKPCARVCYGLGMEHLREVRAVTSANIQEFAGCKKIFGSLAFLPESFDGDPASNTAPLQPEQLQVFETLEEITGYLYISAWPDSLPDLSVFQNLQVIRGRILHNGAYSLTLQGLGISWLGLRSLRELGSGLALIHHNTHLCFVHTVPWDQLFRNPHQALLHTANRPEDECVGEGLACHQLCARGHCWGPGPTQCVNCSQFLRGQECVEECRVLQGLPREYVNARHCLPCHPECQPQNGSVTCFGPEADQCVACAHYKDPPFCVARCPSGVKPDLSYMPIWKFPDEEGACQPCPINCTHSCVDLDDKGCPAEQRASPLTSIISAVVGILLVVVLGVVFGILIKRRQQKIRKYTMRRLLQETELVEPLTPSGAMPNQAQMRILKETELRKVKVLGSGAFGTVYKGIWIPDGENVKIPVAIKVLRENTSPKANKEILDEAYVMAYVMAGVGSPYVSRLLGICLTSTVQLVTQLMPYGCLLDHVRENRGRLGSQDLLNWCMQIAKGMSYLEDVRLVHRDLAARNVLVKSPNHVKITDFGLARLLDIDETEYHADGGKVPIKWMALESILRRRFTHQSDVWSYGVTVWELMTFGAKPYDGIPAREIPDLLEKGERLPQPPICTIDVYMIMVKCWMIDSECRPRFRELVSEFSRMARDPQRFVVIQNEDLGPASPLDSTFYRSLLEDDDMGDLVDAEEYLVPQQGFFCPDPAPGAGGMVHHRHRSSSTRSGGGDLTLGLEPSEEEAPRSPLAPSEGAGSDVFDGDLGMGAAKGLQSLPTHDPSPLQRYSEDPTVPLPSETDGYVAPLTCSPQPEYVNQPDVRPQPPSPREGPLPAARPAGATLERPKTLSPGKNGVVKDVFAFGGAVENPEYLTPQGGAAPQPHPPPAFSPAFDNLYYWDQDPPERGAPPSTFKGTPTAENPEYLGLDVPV
Chain of EGFR wt (P00533 25-1210): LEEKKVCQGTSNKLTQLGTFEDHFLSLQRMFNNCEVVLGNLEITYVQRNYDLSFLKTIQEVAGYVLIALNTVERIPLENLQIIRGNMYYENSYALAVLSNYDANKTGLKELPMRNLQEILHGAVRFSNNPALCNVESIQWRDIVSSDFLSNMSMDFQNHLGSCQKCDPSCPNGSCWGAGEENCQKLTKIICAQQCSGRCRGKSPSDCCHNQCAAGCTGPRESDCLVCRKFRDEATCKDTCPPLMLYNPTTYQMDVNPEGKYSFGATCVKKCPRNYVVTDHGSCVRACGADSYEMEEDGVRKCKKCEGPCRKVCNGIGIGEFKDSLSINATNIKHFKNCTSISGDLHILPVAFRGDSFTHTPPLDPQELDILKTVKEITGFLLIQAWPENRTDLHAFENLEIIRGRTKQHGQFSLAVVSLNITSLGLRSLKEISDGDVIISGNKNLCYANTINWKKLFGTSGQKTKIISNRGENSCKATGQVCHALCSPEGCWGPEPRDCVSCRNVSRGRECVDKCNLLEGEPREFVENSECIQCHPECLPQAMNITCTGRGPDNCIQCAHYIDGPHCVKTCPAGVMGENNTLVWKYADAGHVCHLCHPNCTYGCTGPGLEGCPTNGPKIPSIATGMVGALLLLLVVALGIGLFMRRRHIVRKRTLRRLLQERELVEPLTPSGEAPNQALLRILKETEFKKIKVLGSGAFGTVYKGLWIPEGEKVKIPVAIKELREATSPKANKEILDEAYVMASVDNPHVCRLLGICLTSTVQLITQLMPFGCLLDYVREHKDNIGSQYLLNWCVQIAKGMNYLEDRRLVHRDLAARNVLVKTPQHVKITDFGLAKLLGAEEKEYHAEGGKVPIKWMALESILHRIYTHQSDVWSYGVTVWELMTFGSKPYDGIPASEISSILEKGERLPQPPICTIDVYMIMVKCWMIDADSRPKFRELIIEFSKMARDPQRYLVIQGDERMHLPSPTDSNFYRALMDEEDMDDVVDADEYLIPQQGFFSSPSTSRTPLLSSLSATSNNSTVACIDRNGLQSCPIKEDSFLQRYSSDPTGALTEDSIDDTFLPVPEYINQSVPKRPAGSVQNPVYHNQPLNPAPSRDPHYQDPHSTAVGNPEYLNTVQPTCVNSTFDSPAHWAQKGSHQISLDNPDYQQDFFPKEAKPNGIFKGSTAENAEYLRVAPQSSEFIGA

Structure (SMILES)	GI50 [1]	IC50 (H1975)	IC50 (EGFR T790ML858R)	IC50 (EGFR wt)	GI50 [2]	IC50 (A431)	IC50 (HER2 INS YVMA)
C=CC(=O)Nc1cc(-c2c(-c3ccc(N4CCOCC4)nc3)[nH]c3ncc(C(=O)OC(C)C)cc23)ccc1C [Example 171, isopropyl 3-(3-acrylamido-4-methylphenyl)-2-(6-morpholinopyridin-3-yl)-1H-pyrrolo[2,3-b]pyridine-5-carboxylate]	1000 to 10000 nM	1000 to 100000 nM	500 to 1000 nM	≤ 100 nM	1000 to 10000 nM	1000 to 100000 nM	1000 to 10000 nM
C=CC(=O)Nc1cc(-c2c(-c3ccc(N4CCN(C)CC4)cc3)[nH]c3ncc(C(=O)NCCc4ccncc4)cc23)ccc1C [Example 123, 3-(3-acrylamido-4-methylphenyl)-2-(4-(4-methylpiperazin-1-yl)phenyl)-N-(2-(pyridin-4-yl)ethyl)-1H-pyrrolo[2,3-b]pyridine-5-carboxamide]	1000 to 10000 nM	> 10000 nM	≤ 100 nM	≤ 100 nM	1000 to 10000 nM	1000 to 100000 nM	500 to 1000 nM
C=CC(=O)N1CCOc2ccc(-c3c(-c4ccc(CN(C)C)cc4)[nH]c4nccc(Cl)c34)cc21 [Example 102, 1-(6-(4-chloro-2-(4-((dimethylamino)methyl)phenyl)-1H-pyrrolo[2,3-b]pyridin-3-yl)-2H-benzo[b][1,4]oxazin-4(3H)-yl)prop-2-en-1-one]	100 to 500 nM	100 to 500 nM	≤ 100 nM	≤ 100 nM	100 to 500 nM	1000 to 100000 nM	≤ 100 nM
C=CC(=O)N1CCOc2ccc(-c3c(-c4cccc(OCCN5CCCC5)c4)[nH]c4nccc(Cl)c34)cc21 [Example 103, 1-(6-(4-chloro-2-(3-(2-(pyrrolidin-1-yl)ethoxy)phenyl)-1H-pyrrolo[2,3-b]pyridin-3-yl)-2H-benzo[b][1,4]oxazin-4(3H)-yl)prop-2-en-1-one]	100 to 500 nM	100 to 500 nM	≤ 100 nM	≤ 100 nM	100 to 500 nM	500 to 1000 nM	≤ 100 nM
Cc1ccc(-c2c(-c3ccc(N4CCN(C)CC4)cc3)[nH]c3ncc(C(=O)OC(C)C)cc23)cc1NC(=O)/C=C/CN(C)C [Example 148, (E)-isoproyl 3-(3-(4-(dimethylamino)but-2-enamido)-4-methylphenyl)-2-(4-(4-methylpiperazin-1-yl)phenyl)-1H-pyrrolo[2,3-b]pyridine-5-carboxylate 2,2,2-trifluoroacetate]	500 to 1000 nM	500 to 1000 nM	≤ 100 nM	≤ 100 nM	100 to 500 nM	1000 to 100000 nM	≤ 100 nM
C=CC(=O)NCc1cccc(-c2c(-c3ccc(N4CCN(C)CC4)cc3)[nH]c3ncc(C(=O)OC(C)C)cc23)c1 [Example 203, isopropyl 3-(3-(acrylamidomethyl)phenyl)-2-(4-(4-methylpiperazin-1-yl)phenyl)-1H-pyrrolo[2,3-b]pyridine-5-carboxylate 2,2,2-trifluoroacetate]	1000 to 10000 nM	1000 to 100000 nM	500 to 1000 nM	100 to 500 nM	1000 to 10000 nM	1000 to 100000 nM	1000 to 10000 nM
C=CC(=O)Nc1cc(-c2c(-c3ccc(N4CCN(C)CC4)cc3)[nH]c3ncc(C(=O)NCc4cccc(NC(C)=O)c4)cc23)ccc1C [Example 121, N-(3-acetamidobenzyl)-3-(3-acrylamido-4-methylphenyl)-2-(4-(4-methylpiperazin-1-yl)phenyl)-1H-pyrrolo[2,3-b]pyridine-5-carboxamide]	> 10000 nM	> 10000 nM	100 to 500 nM	≤ 100 nM	> 10000 nM	> 10000 nM	≤ 100 nM
C=CC(=O)Nc1cc(-c2c(-c3ccc(S(=O)(=O)N4CCN(C)CC4)cc3)[nH]c3ncc(C(=O)OC(C)C)cc23)ccc1C [Example 167, isopropyl 3-(3-acrylamido-4-methylphenyl)-2-(4-((4-methylpiperazin-1-yl)sulfonyl)phenyl)-1H-pyrrolo[2,3-b]pyridine-5-carboxylate]	500 to 1000 nM	500 to 1000 nM	≤ 100 nM	≤ 100 nM	500 to 1000 nM	1000 to 100000 nM	100 to 500 nM
C=CC(=O)N1CCc2ccc(-c3c(-c4ccc(CN(C)C)cc4)[nH]c4nccc(OCC)c34)cc21 [Example 106, 1-(6-(2-(4-((dimethylamino)methyl)phenyl)-4-ethoxy-1H-pyrrolo[2,3-b]pyridin-3-yl)indolin-1-yl)prop-2-en-1-one]	100 to 500 nM	≤ 100 nM	≤ 100 nM	≤ 100 nM	100 to 500 nM	500 to 1000 nM	≤ 100 nM
C=CC(=O)Nc1cc(-c2c(-c3ccc(N4CCN(C)CC4)cc3)[nH]c3ncc(C(=O)NCc4ccc(CN5CCN(C)CC5)cc4)cc23)ccc1C [Example 122, 3-(3-acrylamido-4-methylphenyl)-N-(4-((4-methylpiperazin-1-yl)methyl)benzyl)-2-(4-(4-methylpiperazin-1-yl)phenyl)-1H-pyrrolo[2,3-b]pyridine-5-carboxamide]	1000 to 10000 nM	1000 to 100000 nM	≤ 100 nM	≤ 100 nM	1000 to 10000 nM	1000 to 100000 nM	≤ 100 nM
C=CC(=O)Nc1cc(-c2c(-c3ccc(N4CCN(C)CC4)nc3)[nH]c3ncc(C(=O)OC(C)C)cc23)ccc1C [Example 163, isopropyl 3-(3-acrylamido-4-methylphenyl)-2-(6-(4-methylpiperazin-1-yl)pyridin-3-yl)-1H-pyrrolo[2,3-b]pyridine-5-carboxylate]	500 to 1000 nM	500 to 1000 nM	≤ 100 nM	≤ 100 nM	500 to 1000 nM	1000 to 100000 nM	≤ 100 nM
C=CC(=O)Nc1cc(-c2c(-c3ccc(N(C)CCN(C)C)cc3)[nH]c3ncc(C(=O)OC(C)C)c(C)c23)ccc1C [Example 204, isopropyl 3-(3-acrylamido-4-methylphenyl)-2-(4-((2-(dimethylamino)ethyl)(methyl)amino)phenyl)-4-methyl-1H-pyrrolo[2,3-b]pyridine-5-carboxylate]	≤ 100 nM	100 to 500 nM	≤ 100 nM	≤ 100 nM	≤ 100 nM	1000 to 100000 nM	≤ 100 nM
C=CC(=O)Nc1cc(-c2c(-c3ccc(N4CCN(C)CC4)cc3)[nH]c3ncc(C(=O)NCc4ccccc4)cc23)ccc1C [Example 118, 3-(3-acrylamido-4-methylphenyl)-N-benzyl-2-(4-(4-methylpiperazin-1-yl)phenyl)-1H-pyrrolo[2,3-b]pyridine-5-carboxamide 2,2,2-trifluoroacetate]	100 to 500 nM	500 to 1000 nM	≤ 100 nM	≤ 100 nM	100 to 500 nM	500 to 1000 nM	≤ 100 nM
C=CC(=O)Nc1cc(-c2c(-c3ccc(N4CCN(C)CC4)cc3)[nH]c3ncc(C(=O)NCc4nc5ccccc5[nH]4)cc23)ccc1C [Example 125, N-((1H-benzo[d]imidazol-2-yl)methyl)-3-(3-acrylamido-4-methylphenyl)-2-(4-(4-methylpiperazin-1-yl)phenyl)-1H-pyrrolo[2,3-b]pyridine-5-carboxamide]	1000 to 10000 nM	100 to 500 nM	100 to 500 nM	≤ 100 nM	1000 to 10000 nM	1000 to 100000 nM	1000 to 10000 nM
